{"source": "patent US7560597B2", "about": "“2′,4′-dichloro-biphenyl-4-yl-hydroxy-ketones and related compounds and their use as therapeutic agents” (The University Court of the University of Aberdeen, priority 2007, dated 2009)", "key": {"[1]": {"tested_on": "macrophage cell line J774", "assay": "Alamar Blue macrophage J774 viability assay", "type": "cell-based", "details": "Mus musculus, J774, 72 h, 72 hours culture with compound", "description": "Initial screening of candidate compounds was performed using viability assays on cultures of the macrophage cell line J774, which have been used before as a model system for osteoclast survival (see, e.g., Luckman et al., 1998). The assays are based on the survival of the J774 macrophage cell line; macrophages are closely related to osteoclasts, and contain similar high levels of esterase activity.\nJ774 cells were plated at 10^4 cells per well in 150 μL αMEM (α Modified Eagle Medium) in 96-well plates and grown overnight. The next day, test compounds were added to the cultures, and cultures were continued for another 72 hours. At the end of the culture period, cell survival was determined using an Alamar Blue assay as previously described (see, e.g., Nociari et al., 1998).\nAlamar Blue is an oxidation-reduction sensitive indicator. The dye itself is in the oxidised state, which is blue and non-fluorescent. The dye can accept electrons from reducing species, such as NADPH and FADH, to form a reduced dye species, which is red and fluorescent. Thus the transformation from oxidised form to reduced form can be measured by fluorimetric or colourimetric means. For fluorescence measurements, 530-560 nm excitation and 590 nm emission wavelengths are typically used. For colourimetric measurements, absorbance is measured at 570 nm (reduced form) and 600 nm (oxidised form) and a simple calculation performed to determine the relative quantities of the two species.\nA high ratio of the reducing species, NADPH and FADH, to the corresponding oxidised species, NADP and FAD, is an indicator that cells are proliferating and viable. A low ratio indicates cells that are quiescent or non-viable.\nBriefly, Alamar Blue (Biosource International) was added undiluted to the each well (1:10 v/v, 15 μL). The plate was incubated at 37° C. for 3-4 hours and the fluorescence was measured at 590 nm, with a 25 nm bandwidth. A high reading indicated cells with normal viability, and a low reading indicated cells that have been damaged and are no longer proliferating normally. The controls gave a high fluorescence reading, indicating a high number of live, healthy cells. A potent test compound gave a low fluorescence reading. The average results for each test compound (n=5) were expressed as a percent (%) of the average control value.\nAddition of Compounds. All of the compounds studied were made up as 100 mM solutions in DMSO. These stock solutions were then diluted 100 or 1000× in culture medium (αMEM). From these 1 mM or 100 μM solutions, convenient quantities (3-15 μL) were added directly to the wells so as to give the desired final compound concentration."}, "[2]": {"tested_on": "mouse collagen-induced arthritis model", "assay": "Collagen-induced arthritis model, joint inflammation scoring", "type": "in vivo", "details": "for total joint score (sum of joint inflammation scores of the study group): 21-day period, n=10, untreated group 47, FIG. 3", "description": "Collagen-induced arthritis (CIA) was induced in 8-week old male DBA/1 mice, by intradermal injection of 100 μL of chicken collagen type II (2 mg/mL) suspended in complete Freund's adjuvant supplemented with 2 mg/mL devitalised M. Tuberculosis into the base of the tail. This will lead to joint inflammation in >80% of the animals within 4 weeks. Treatment with ABD328 (10 mg/kg/day, orally or i.p., delivered in corn oil) was started when joint inflammation became apparent in the first animals (in this experiment 15 days after injection), and the experiment was terminated 3 weeks later. For each animal, the scores for all four joints were added (maximal score=12).\nCompound ABD328 (dosage 10 mg/kg, i.p. or oral) was investigated in vivo using the collagen-induced arthritis model, assessed using joint inflammation severity scoring, as described above."}, "[3]": {"tested_on": "mouse-ovariectomy bone loss model", "assay": "Ovariectomy induced bone loss (pQCT trabecular bone density)", "type": "in vivo", "details": "OVX mice, 20 mg/kg orally", "description": "Animals. Female 9 week-old C57/BL6 mice were used. Animals were housed in a designated animal facility and routinely maintained on a 12 hour:12 hour light:dark cycle and given ad libitum access to food and water.\nOvariectomy induced bone loss. Bilateral ovariectomy (Ovx) was performed under general anaesthesia. Sham ovariectomy (Sham) was similarly performed but with externalisation and replacement of the ovaries. Animals were given a daily injection of (a) test compound (e.g., 10 mg/kg) in vehicle (corn oil), or (b) vehicle (corn oil). After 21 days, the animals were killed, and the tibial bones were dissected and used for bone mineral density measurements and histomorphometric analysis (see below).\nBone Mineral Measurements. Measurements of bone mineral density (BMD) at the left proximal tibial metaphysis were determined by peripheral quantitative computed tomography (pQCT) using an XCT Research M bone densitometer with a voxel size of 70 μm and analysis software version 5.1.4 (Stratec Medizintechnik, Pforzheim, Germany). […]\nStatistical Analyses. […] Significant differences between groups were determined by ANOVA followed by post-hoc testing using Dunnet's post-test. […]\nCompounds ABD68, ABD328 and ABD355 (dosage 20 mg/kg, orally) were investigated in vivo using ovariectomy induced bone loss assessed using peripheral quantitative computed tomography, as described above."}, "[4]": {"assay": "In vivo pharmacokinetics: serum levels after oral dosage (HPLC/UV)", "parameters": "species or system rat", "details": "rats, 10 mg/kg oral", "description": "Absorption and metabolic stability were studied using an in vivo pharmacokinetics assay. Drug levels assessed using HPLC/UV.\nFollowing overnight starvation, male Wistar rats (250 g) were given a bolus gavage of 500 μL of a solution of test compound in corn oil (5 mg/ml). Blood samples (1 mL, whole blood) were taken at various time intervals and the serum collected following centrifugation. Samples were frozen until required for analysis.\nEthyl acetate (4 mL) was added to the defrosted serum and the samples mixed for 20 minutes. Following centrifugation, the ethyl acetate layer was collected and evaporated under a stream of nitrogen. The residue was reconstituted in mobile phase and 20 μL injected onto the chromatogram.\nStandard calibration curves were prepared for each of the test compounds and were linear in the range of 1 ng/mL to 250 ng/mL.\n• Column: HIRPB C18 (150×4.6 mm). • Mobile phase: 60% 25 mM ammonium acetate, pH 4; 40% acetonitrile. • Flow rate: 1 mL/minute. • Detection: Peaks detected by UV absorption at λmax in the range of 240-275 nm.\nSerum levels of compounds ABD328, ABD345 and ABD430 following oral dosage (10 mg/kg) over the course of 60 minutes were investigated in vivo in rats using an HPLC/UV detection system, as described above."}, "[5]": {"details": "Table 3 (variation of W), J774 cells"}}, "note": "“Also recorded” adds a separate entry of the source.", "data": [{"smiles": "OCCCCC[C@@H](O)c1ccc(-c2ccc(Cl)cc2Cl)cc1", "note": "[ABD511, (R)-1-(2′,4′-Dichloro-biphenyl-4-yl)-hexane-1,6-diol]", "values": [{"measurement": "IC50", "setting": "[1]; [5]", "result": "4 ± 2", "unit": "µM"}]}, {"smiles": "OCCCCC/C(=N\\O)c1ccc(-c2ccc(Cl)cc2Cl)cc1", "note": "[ABD468, 1-(2′,4′-Dichloro-biphenyl-4-yl)-6-hydroxy-hexan-1-one oxime]", "values": [{"measurement": "IC50", "setting": "[1]; [5]", "result": "7 ± 2", "unit": "µM"}]}, {"smiles": "O=C(CCCCCO)c1ccc(-c2ccc(Cl)cc2Cl)cc1", "note": "[ABD328, 1-(2′,4′-Dichloro-biphenyl-4-yl)-6-hydroxy-hexan-1-one]", "values": [{"measurement": "IC50", "setting": "[1]; Table 2, J774 cells", "result": "12 ± 2", "unit": "µM"}, {"measurement": "IC50", "setting": "[1]; [5]", "result": "11 ± 3", "unit": "µM"}, {"measurement": "total joint score (sum of joint inflammation scores of the study group)", "setting": "[2]; 10 mg/kg/day i.p.", "result": 5}, {"measurement": "total joint score (sum of joint inflammation scores of the study group)", "setting": "[2]; 10 mg/kg/day orally", "result": 13}, {"measurement": "effect on collagen-induced arthritis / inflammation (in words)", "setting": "[2]; 10 mg/kg/day, i.p. or oral", "result": "fully reverse the effects of collagen-induced arthritis; also recorded: prevents inflammation"}, {"measurement": "effect on ovariectomy-induced bone loss (in words)", "setting": "[3]; 20 mg/kg", "result": "fully reverse the effects of ovariectomy-induced bone loss; also recorded: fully prevents bone loss"}, {"measurement": "increase in trabecular bone density", "setting": "[3]; relative to the control group (OVX no drug: 34% decrease), FIG. 1", "result": 6, "unit": "%"}, {"measurement": "metabolic stability (in words)", "setting": "[4]; in vivo serum levels", "result": "good degree of metabolic stability"}, {"measurement": "oral absorption (blood serum levels), in words", "setting": "[4]; over 60 minutes, FIG. 2", "result": "well absorbed"}]}, {"smiles": "OCCCCC[C@H](O)c1ccc(-c2ccc(Cl)cc2Cl)cc1", "note": "[ABD513, (S)-1-(2′,4′-Dichloro-biphenyl-4-yl)-hexane-1,6-diol]", "values": [{"measurement": "IC50", "setting": "[1]; [5]", "result": "11 ± 4", "unit": "µM"}]}, {"smiles": "OCCCCCC(O)c1ccc(-c2ccc(Cl)cc2Cl)cc1", "note": "(racemic) [ABD300, (R,S)-1-(2′,4′-Dichloro-biphenyl-4-yl)-hexane-1,6-diol]", "values": [{"measurement": "IC50", "setting": "[1]; [5]", "result": "8 ± 2", "unit": "µM"}]}]}
